Experimental data published in patent publication US20260259229A1, “FATIGUE SYNDROME SIGNATURES AND METHODS OF TREATMENT” (The Board of Trustees of the Leland Stanford Junior …, priority 2023, published 2026).
Entries after “also recorded” stand apart in the source; their conditions may differ.

Legend:
CD4 T cells = assay: Screening for reversal of oxidative damage: PBMCs treated with ROS inducer, then candidate drug; lipid peroxidation by flow cytometry (FIG. 9B, 9F); type: cell-based, human; details: drug after ROS inducer, versus positive control cells treated only with ROS inducer (FIG. 9F)
Procedure: FIGS. 9A-9F. Screening assays. (A) To identify drugs that can protect immune cell populations from oxidative stress, PBMCs are treated with candidate drugs (e.g., liproxstatin-1, metformin) for an hour, before treatment with ROS inducer (e.g., cumene […], tert-butyl hydroperoxide). By subsequently labeling cells with metabolic dyes to track oxidative stress parameters, comparisons with immune cells only treated with ROS inducer enable quantification of drugs capacity to protect against oxidative stress and damage in immune cell populations. (B) To identify drugs that can reverse oxidative stress and damage in immune cell populations, PBMCs are treated first with a ROS inducer for 30 minutes to an hour, before subsequent treatment with candidate drugs. By labeling with metabolic dyes and comparing the drug treated immune cell populations to those treated only with ROS inducer, we can quantify the capacity for drugs to reverse oxidative stress and damage in PBMCs. (C) To link these metabolic changes with immune cell function, control and disease PBMCs (e.g., from fatigue-syndrome patients) are labeled with proliferation dyes, upon which T cells are stimulated with anti-CD3/anti-CD28 antibodies and IL-2. By treating PBMCs with drugs identified from methodologies described in 9A and 9B, we can assess how metabolic changes to oxidative stress levels in drugs also modulate functional capacity of donor T cells to proliferate. While flowchart is specific to T cells (e.g., anti-CD3/anti-CD28 stimulation), the core methodology is applicable to other immune cell populations, where changes in immune cells capacity to proliferate can be assessed upon treatment with candidate drugs. (D) Application of methodology to a specific CFS patient is shown, where PBMCs treated with ROS-modulating drugs including N-acetylcysteine, metformin, and liproxstatin-1. Flow cytometry data is shown for CD4 T cells, where the x-axis corresponds to CellTraceViolet (proliferation dye) staining and the y-axis corresponds to total ROS levels. […] (E) Proportion of proliferating T cells are shown for a specific CFS patient (patient 27) along with their […] and […]. […] Lipid peroxidation changes are shown, where higher oxidative damage corresponds to a lower value on the y-axis. Identified drugs include N-acetylcysteine (NAC), metformin, liproxstatin-1, nicotinamide mononucleotide (NMN), oxaloacetate, MitoQ, Abilify, Colchicine, Naltrexone. Although this methodology is shown for CD4 T cells, it is broadly applicable to other immune cell populations (e.g., myeloid cells).
Staining: To stain for mitochondrial parameters, cells were stained with BioTracker ATP-Red Live Cell Dye (Sigma Aldrich), MitoTracker Deep Red FM (ThermoFisher), MitoSpy Green FM (BioLegend). To stain for ROS levels, cells were stained with DCFDA cellular ROS assay kit (abcam), MitoSOX Red Mitochondrial Superoxide detector (ThermoFisher). To stain for glutathione clearance and oxidative damage, cells were stained with ThiolTracker Violet (ThermoFisher), HCS LipidTOX Green Neutral Lipid Stain (ThermoFisher) for lipid droplet levels, and Image-iT™ Lipid Peroxidation Kit, ratiometric lipid peroxidation sensor (ThermoFisher). To capture viability, cells were stained with LIVE/DEAD Fixable Far Red Dead Cell Stain (ThermoFisher).

[1] = test system: CD4 and CD8 T cells (donor PBMCs); assay: T cell proliferation assay: CellTrace Violet dye dilution, PBMCs stimulated with anti-CD3/anti-CD28 antibodies and IL-2, treated with ROS-modulating drugs; type: cell-based, human; details: for proportion of proliferating T cells, HC and ME-CFS PBMCs (FIG. 15): 100 μM N-acetylcysteine, liproxstatin-1, 5-days post activation; for effect in reducing T cell hyperproliferation in ME/CFS donors: female ME/CFS donors, p: NAC CD4 0.82, CD8 0.7, metformin CD4 0.041, CD8 0.39, liproxstatin-1 CD4 0.31, CD8 0.18; for reduction in T cell proliferation upon treatment, male ME/CFS: male ME/CFS PBMCs (FIG. 17: 100 μM N-acetylcysteine, 10 μM metformin, 1 μM liproxstatin-1); for proportion of proliferating CD4 T cells upon stimulation: patient 27 (ME/CFS) PBMCs treated at day 0, read 5 days after stimulation, untreated 79.3%; for effect in lowering T cell proliferation in LC female donors: female LC PBMCs (FIG. 16)
patients = details: double-blinded phase III studies on >1300 patients, especially among female patients; cited from earlier work

Row | SMILES | capacity for reversing oxidative damage (lipid peroxidation changes) (CD4 T cells) | effect in reducing T cell hyperproliferation in ME/CFS donors ([1]; 5 days post stimulation) | reduction in T cell proliferation upon treatment, male ME/CFS [1] | proportion of proliferating CD4 T cells upon stimulation [1] | also measured
1 | O=C1CCc2ccc(OCCCCN3CCN(c4cccc(Cl)c4Cl)CC3)cc2N1 [Abilify] | reversing oxidative damage | – | – | – | –
2 | COc1cc2c(c(OC)c1OC)-c1ccc(OC)c(=O)cc1[C@@H](NC(C)=O)CC2 [Colchicine] | reversing oxidative damage | – | – | – | –
3 | COC1=C(OC)C(=O)C(CCCCCCCCCC[P+](c2ccccc2)(c2ccccc2)c2ccccc2)=C(C)C1=O [MitoQ] | reversing oxidative damage | – | – | – | –
4 | CC(=O)N[C@@H](CS)C(=O)O [NAC, N-acetylcysteine] | reversing oxidative damage | did not have any effect | did not observe any reduction | 54.3% | proportion of proliferating T cells, HC and ME-CFS PBMCs (FIG. 15) [1]: no difference or decrease
5 | O=C1CC[C@@]2(O)[C@H]3Cc4ccc(O)c5c4[C@@]2(CCN3CC2CC2)[C@H]1O5 [Naltrexone] | reversing oxidative damage | – | – | – | –
6 | Clc1cccc(CN=C2Nc3ccccc3NC23CCNCC3)c1 [liproxstatin-1] | reversing oxidative damage | did not show a statistically significant effect | did not observe any reduction | 64.5% | proportion of proliferating T cells, HC and ME-CFS PBMCs (FIG. 15) [1]: selectively lowers proliferation in ME-CFS and not the HC donors; effect in lowering T cell proliferation in LC female donors ([1]; 5 days post stimulation): did not show a statistically significant effect
7 | CN(C)C(=N)N=C(N)N [metformin] | reversing oxidative damage | statistically significant effect in reducing CD4 T cell hyperproliferation; also recorded: statistically significant reduction | did not observe any reduction | 53.2% | reduction of Long COVID incidence (patients): 41%; effect on T cell proliferation in healthy controls ([1]; HC donors, 5 days post stimulation, metformin CD4 p=1, CD8 p=0.69): no effect; also recorded: does not alter proliferation; average reduction of CD4 T cell proliferation ([1]; LC donor PBMCs, metformin treatment (10 μM, FIG. 16B), p=0.31): 5.2%; average reduction of CD8 T cell proliferation ([1]; LC donor PBMCs, metformin treatment (10 μM, FIG. 16B), p=0.42): 7.6%; effect in lowering T cell proliferation in LC female donors ([1]; 5 days post stimulation): smaller and non-statistically significant effect
8 | NC(=O)c1ccc[n+]([C@@H]2O[C@H](COP(=O)([O-])O)[C@@H](O)[C@H]2O)c1 [nicotinamide mononucleotide] | reversing oxidative damage | – | – | – | –
